From patent US8449898B2 (priority 2007, dated 2013)
Read-outs that look alike come from different tables or passages of the source.

Columns and labels:
[1] = tested on: Phytophthora infestans (the causal agent of tomato late blight); experiment: whole plant or invertebrate; assay type: in vivo; settings: for pest or weed control at 0.4 ppm / pest or weed control at 2 ppm / pest or weed control at 10 ppm / pest or weed control at 40 ppm / pest or weed control at 200 ppm / pest or weed control at 0.04 ppm: Phytophthora infestans; for TLB Obsd (disease control rating): Table A; for TLB Obsd: component (b) alone
[2] = tested on: Pseudoperonospora cubensis (the causal agent of cucumber downy mildew); experiment: Test B: cucumber downy mildew, preventive spray on cucumber seedlings; assay type: in vivo; settings: for pest or weed control at 0.4 ppm / pest or weed control at 2 ppm / pest or weed control at 10 ppm / pest or weed control at 40 ppm / pest or weed control at 200 ppm / pest or weed control at 0.4 µg/mL / pest or weed control at 2 µg/mL / pest or weed control at 10 µg/mL / pest or weed control at 40 µg/mL / pest or weed control at 200 µg/mL / pest or weed control at 0.04 ppm: Pseudoperonospora cubensis; for pest or weed control at 0.4 µg/mL: component (b) alone 0.4 ppm (Compound 1 0 ppm); for pest or weed control at 2 µg/mL: component (b) alone 2 ppm (Compound 1 0 ppm); for pest or weed control at 10 µg/mL: component (b) alone 10 ppm (Compound 1 0 ppm); for pest or weed control at 40 µg/mL: component (b) alone 40 ppm (Compound 1 0 ppm); for pest or weed control at 200 µg/mL: component (b) alone 200 ppm (Compound 1 0 ppm); for CDM Obsd (disease control rating): Table A
[3] = read-out: TLB Obsd (disease control rating), Table C, component (b) alone 0.4 ppm
[4] = read-out: TLB Obsd (disease control rating), Table C, component (b) alone 2 ppm
[5] = read-out: TLB Obsd (disease control rating), Table C, component (b) alone 10 ppm
[6] = read-out: TLB Obsd (disease control rating), Table C, component (b) alone 40 ppm
[7] = read-out: TLB Obsd (disease control rating), Table C, component (b) alone 200 ppm
[8] = read-out: TLB Obsd, component (b) alone, 0.04 ppm
[9] = read-out: TLB Obsd, component (b) alone, 2 ppm
[10] = read-out: TLB Obsd, component (b) alone, 10 ppm
[11] = read-out: TLB Obsd, component (b) alone, 40 ppm
[12] = read-out: TLB Obsd, component (b) alone, 200 ppm
[13] = Table C, component (b) alone 0.4 ppm, read-out: CDM Obsd (disease control rating)
[14] = Table C, component (b) alone 2 ppm, read-out: CDM Obsd (disease control rating)
[15] = Table C, component (b) alone 10 ppm, read-out: CDM Obsd (disease control rating)
[16] = Table C, component (b) alone 40 ppm, read-out: CDM Obsd (disease control rating)
[17] = Table C, component (b) alone 200 ppm, read-out: CDM Obsd (disease control rating)
[18] = component (b) alone, 0.04 ppm, read-out: CDM Obsd
[19] = component (b) alone, 2 ppm, read-out: CDM Obsd
[20] = component (b) alone, 10 ppm, read-out: CDM Obsd
[21] = component (b) alone, 40 ppm, read-out: CDM Obsd
[22] = component (b) alone, 200 ppm, read-out: CDM Obsd

Compound `CON=C(C(=O)OC)c1ccccc1CON=C(C)c1cccc(C(F)(F)F)c1` [trifloxystrobin] has a pest or weed control at 0.4 ppm [1, 3] of 0%, a pest or weed control at 2 ppm [1, 4] of 40% and a pest or weed control at 10 ppm [1, 5] of 26%. For the same compound, the pest or weed control at 40 ppm [1, 6] was 45%, the pest or weed control at 200 ppm [1, 7] was 53% and the pest or weed control at 0.04 ppm [1, 8] was 0%. It also gave a pest or weed control at 2 ppm [1, 9] of 0%, a pest or weed control at 10 ppm [1, 10] of 72% and a pest or weed control at 40 ppm [1, 11] of 38%. It also gave a pest or weed control at 200 ppm [1, 12] of 25%, a pest or weed control at 0.4 ppm [2, 13] of 47% and a pest or weed control at 2 ppm [2, 14] of 47%. The pest or weed control at 10 ppm [2, 15] was 58%, the pest or weed control at 40 ppm [2, 16] was 94% and the pest or weed control at 200 ppm [2, 17] was 100%. For the same compound, the pest or weed control at 0.4 µg/mL ([2]; read-out: CDM Obsd) was 47%, the pest or weed control at 2 µg/mL ([2]; read-out: CDM Obsd) was 47% and the pest or weed control at 10 µg/mL ([2]; read-out: CDM Obsd) was 57%. For the same compound, the pest or weed control at 40 µg/mL ([2]; read-out: CDM Obsd) was 93%, the pest or weed control at 200 µg/mL ([2]; read-out: CDM Obsd) was 100% and the pest or weed control at 0.04 ppm [2, 18] was 0%. For the same compound, the pest or weed control at 2 ppm [2, 19] was 0%, the pest or weed control at 10 ppm [2, 20] was 16% and the pest or weed control at 40 ppm [2, 21] was 89%. For the same compound, the pest or weed control at 200 ppm [2, 22] was 100%.

In the case of `CCCOc1nc2ccc(I)cc2c(=O)n1CCC` [proquinazid], the “TLB Obsd (disease control rating)” value ([1]; component (b) alone 0.4 ppm) is reported as 0%, the “TLB Obsd (disease control rating)” value ([1]; component (b) alone 2 ppm) is reported as 0% and the “TLB Obsd (disease control rating)” value ([1]; component (b) alone 10 ppm) is reported as 0%. The “TLB Obsd (disease control rating)” value ([1]; component (b) alone 40 ppm) was 24%, the “TLB Obsd (disease control rating)” value ([1]; component (b) alone 200 ppm) was 0% and the “TLB Obsd” value ([1]; 0.04 ppm) was 17%. For the same compound, the “TLB Obsd” value ([1]; 2 ppm) was 0%, the “TLB Obsd” value ([1]; 10 ppm) was 8% and the “TLB Obsd” value ([1]; 40 ppm) was 8%. For the same compound, the “TLB Obsd” value ([1]; 200 ppm) was 17%, the “CDM Obsd (disease control rating)” value ([2]; component (b) alone 0.4 ppm) was 47% and the “CDM Obsd (disease control rating)” value ([2]; component (b) alone 2 ppm) was 47%. For the same compound, the “CDM Obsd (disease control rating)” value ([2]; component (b) alone 10 ppm) was 47%, the “CDM Obsd (disease control rating)” value ([2]; component (b) alone 40 ppm) was 47% and the “CDM Obsd (disease control rating)” value ([2]; component (b) alone 200 ppm) was 47%. For the same compound, the “CDM Obsd” value ([2]; Table G, component (b) alone at 0.4 ppm) was 26%, the “CDM Obsd” value ([2]; Table G, component (b) alone at 2 ppm) was 26% and the “CDM Obsd” value ([2]; Table G, component (b) alone at 10 ppm) was 26%. For the same compound, the “CDM Obsd” value ([2]; Table G, component (b) alone at 40 ppm) was 26%, the “CDM Obsd” value ([2]; Table G, component (b) alone at 200 ppm) was 26% and the “CDM Obsd” value ([2]; component (b) alone, 0.04 ppm) was 0%. The “CDM Obsd” value ([2]; component (b) alone, 2 ppm) was 0%, the “CDM Obsd” value ([2]; component (b) alone, 10 ppm) was 0% and the “CDM Obsd” value ([2]; component (b) alone, 40 ppm) was 0%. The “CDM Obsd” value ([2]; component (b) alone, 200 ppm) was 0%.

In the case of `O=[N+]([O-])c1cc(C(F)(F)F)c(Cl)c([N+](=O)[O-])c1Nc1ncc(C(F)(F)F)cc1Cl` [fluazinam], the pest or weed control at 0.4 ppm [1, 3] is reported as 17%, the pest or weed control at 2 ppm [1, 4] is reported as 40% and the pest or weed control at 10 ppm [1, 5] is reported as 80%. The pest or weed control at 40 ppm [1, 6] was 98%, the pest or weed control at 200 ppm [1, 7] was 100% and the pest or weed control at 0.04 ppm ([1]; read-out: TLB Obsd (observed effect, tomato late blight), component (b) alone, 0.04 ppm) was 23%. For the same compound, the pest or weed control at 2 ppm ([1]; read-out: TLB Obsd (observed effect, tomato late blight), component (b) alone, 2 ppm) was 71%, the pest or weed control at 10 ppm ([1]; read-out: TLB Obsd (observed effect, tomato late blight), component (b) alone, 10 ppm) was 99% and the pest or weed control at 40 ppm ([1]; read-out: TLB Obsd (observed effect, tomato late blight), component (b) alone, 40 ppm) was 99%. The pest or weed control at 200 ppm ([1]; read-out: TLB Obsd (observed effect, tomato late blight), component (b) alone, 200 ppm) was 100%, the pest or weed control at 0.4 ppm [2, 13] was 57% and the pest or weed control at 2 ppm [2, 14] was 60%. For the same compound, the pest or weed control at 10 ppm [2, 15] was 91%, the pest or weed control at 40 ppm [2, 16] was 100% and the pest or weed control at 200 ppm [2, 17] was 100%. It also gave a pest or weed control at 0.4 µg/mL ([2]; read-out: CDM Obsd) of 47%, a pest or weed control at 2 µg/mL ([2]; read-out: CDM Obsd) of 57% and a pest or weed control at 10 µg/mL ([2]; read-out: CDM Obsd) of 92%. The pest or weed control at 40 µg/mL ([2]; read-out: CDM Obsd) was 100%, the pest or weed control at 200 µg/mL ([2]; read-out: CDM Obsd) was 100% and the pest or weed control at 0.04 ppm ([2]; component (b) alone, 0.04 ppm, read-out: CDM Obsd (observed effect, cucumber downy mildew)) was 56%. It also gave a pest or weed control at 2 ppm ([2]; component (b) alone, 2 ppm, read-out: CDM Obsd (observed effect, cucumber downy mildew)) of 89%, a pest or weed control at 10 ppm ([2]; component (b) alone, 10 ppm, read-out: CDM Obsd (observed effect, cucumber downy mildew)) of 98% and a pest or weed control at 40 ppm ([2]; component (b) alone, 40 ppm, read-out: CDM Obsd (observed effect, cucumber downy mildew)) of 100%. For the same compound, the pest or weed control at 200 ppm ([2]; component (b) alone, 200 ppm, read-out: CDM Obsd (observed effect, cucumber downy mildew)) was 100%.

Compound `C[C@@]1(c2ccc(Oc3ccccc3)cc2)OC(=O)N(Nc2ccccc2)C1=O` (racemic) [famoxadone] has a pest or weed control at 0.4 ppm [1, 3] of 17%, a pest or weed control at 2 ppm [1, 4] of 26% and a pest or weed control at 10 ppm [1, 5] of 67%. The pest or weed control at 40 ppm [1, 6] was 53%, the pest or weed control at 200 ppm [1, 7] was 66% and the pest or weed control at 0.04 ppm [1, 8] was 100%. It also gave a pest or weed control at 2 ppm [1, 9] of 32%, a pest or weed control at 10 ppm [1, 10] of 93% and a pest or weed control at 40 ppm [1, 11] of 98%. It also gave a pest or weed control at 200 ppm [1, 12] of 100%, a pest or weed control at 0.4 ppm [2, 13] of 47% and a pest or weed control at 2 ppm [2, 14] of 63%. The pest or weed control at 10 ppm [2, 15] was 95%, the pest or weed control at 40 ppm [2, 16] was 100% and the pest or weed control at 200 ppm [2, 17] was 100%. The pest or weed control at 0.4 µg/mL ([2]; read-out: CDM Obsd) was 47%, the pest or weed control at 2 µg/mL ([2]; read-out: CDM Obsd) was 58% and the pest or weed control at 10 µg/mL ([2]; read-out: CDM Obsd) was 87%. It also gave a pest or weed control at 40 µg/mL ([2]; read-out: CDM Obsd) of 100%, a pest or weed control at 200 µg/mL ([2]; read-out: CDM Obsd) of 100% and a pest or weed control at 0.04 ppm [2, 18] of 100%. The pest or weed control at 2 ppm [2, 19] was 21%, the pest or weed control at 10 ppm [2, 20] was 72% and the pest or weed control at 40 ppm [2, 21] was 100%. The pest or weed control at 200 ppm [2, 22] was 100%.
